Data on two compounds can be found in ChEMBL document CHEMBL6092157, “PET imaging assist investigation of HDAC6 expression change in MDD and evaluating antidepressant efficacy of a newly developed HDAC6 inhibitor” (Eur J Med Chem, 2024).

Data set [1] is described as follows: Drug uptake in hippocampus of chronic unpredictable mild stress C57BL/6 mouse model by PET imaging analysis. The class given is ADME, tissue-based. The following applies: in vivo.
The nature of data set [2]: Drug uptake in kidney of chronic unpredictable mild stress C57BL/6 mouse model by PET imaging analysis. The following applies: in vivo. The class given is ADME, tissue-based.
Data set [3] is described as follows: Drug uptake in lung of chronic unpredictable mild stress C57BL/6 mouse model by PET imaging analysis. The following applies: in vivo. It is filed as ADME, tissue-based.
Data set [4] can be described thus: Drug uptake in liver of chronic unpredictable mild stress C57BL/6 mouse model by PET imaging analysis. The class given is ADME, tissue-based. The following applies: in vivo.
The nature of data set [5]: Drug uptake in spleen of chronic unpredictable mild stress C57BL/6 mouse model by PET imaging analysis. The settings on record: in vivo. The class given is ADME, tissue-based.
Data set [6] is described as follows: Drug uptake in heart of chronic unpredictable mild stress C57BL/6 mouse model by PET imaging analysis. The settings on record: in vivo. The class given is ADME, tissue-based.
Data set [7] can be described thus: Drug uptake in striatum of chronic unpredictable mild stress C57BL/6 mouse model by PET imaging analysis. The class given is ADME, tissue-based. The following applies: in vivo.
Data set [8] is described as follows: Drug uptake in hypothalamus of chronic unpredictable mild stress C57BL/6 mouse model by PET imaging analysis. It is filed as ADME, tissue-based. The following applies: in vivo.
Data set [9] is described as follows: Ratio of drug concentration in brain to plasma of C57BL/6 mouse at 1 mg/kg, ip measured for 1 hr by LC-MS/MS analysis. It is filed as ADME, organism-based. The following applies: read-out: BPR.
Data set [10] is described as follows: Drug concentration in plasma of C57BL/6 mouse at 1 mg/kg, ip measured for 0.5 hrs by LC-MS/MS analysis. It is filed as ADME, organism-based.
Data set [11] is described as follows: Cmax in C57BL/6 mouse at 20 mg/kg, iv by LC-MS/MS analysis. The following applies: in vivo. It is filed as ADME, organism-based.
Data set [12] is described as follows: Ratio of drug concentration in brain to plasma of C57BL/6 mouse at 1 mg/kg, ip measured for 0.5 hrs by LC-MS/MS analysis. It is filed as ADME, organism-based. The following applies: read-out: BPR.
A short description of data set [13]: Toxicity in chronic unpredictable mild stress C57BL/6 mouse model assessed as histomorphological changes at 20 mg/kg, ip qd for 21 days. The class given is organism-based. The settings on record: in vivo, 504 h, time 21 day.
Data set [14] deals with Mus musculus. Description: Antidepressant activity in chronic unpredictable mild stress C57BL/6 mouse model assessed as shorter feeding latency to eat at 20 mg/kg, ip qd for 21 days by novelty-suppressed feeding test. The class given is functional, organism-based. The following applies: time 21.0 day.
The nature of data set [15]: […] bioavailability in C57BL/6 mouse at 20 mg/kg by LC-MS/MS analysis. The settings on record: in vivo. The class given is ADME, organism-based.
The nature of data set [16]: Drug concentration in plasma of C57BL/6 mouse at 1 mg/kg, ip measured for 1 hr by LC-MS/MS analysis. The class given is ADME, organism-based.
Data set [17] is described as follows: AUC (0 to infinity) in C57BL/6 mouse at 20 mg/kg, iv by LC-MS/MS analysis. It is filed as ADME, organism-based. The settings on record: in vivo.
The nature of data set [18]: Toxicity in chronic unpredictable mild stress C57BL/6 mouse model assessed as damage in organs at 20 mg/kg, ip qd for 21 days by H and E staining based analysis. It is filed as organism-based. The settings on record: in vivo, 504 h, time 21 day.
For data set [19], the system named is Mus musculus. Description: Antidepressant activity in chronic unpredictable mild stress C57BL/6 mouse model assessed as longer duration spent in central area at 20 mg/kg, ip qd for 21 days by open field test. It is filed as functional, organism-based. The following applies: time 21.0 day.
Data set [20] is filed under the species Mus musculus. Description: Upregulation of tubulin acetylation in brain of chronic unpredictable mild stress C57BL/6 mouse model by IHC analysis. The class given is functional, organism-based.
A short description of data set [21]: Cmax in C57BL/6 mouse at 20 mg/kg, ip by LC-MS/MS analysis. It is filed as ADME, organism-based. The following applies: in vivo.
Data set [22] relates to Mus musculus. The data set is described as follows: Antidepressant activity in chronic unpredictable mild stress C57BL/6 mouse model assessed as reduction in immobility time at 20 mg/kg, ip qd for 21 days by tail suspension test. It is filed as functional, organism-based. The settings on record: time 21.0 day.
Data set [23] in a line: Tmax in C57BL/6 mouse at 20 mg/kg, ip by LC-MS/MS analysis. The class given is ADME, organism-based. The following applies: in vivo.
Data set [24] is described as follows: Drug concentration in brain of C57BL/6 mouse at 1 mg/kg, ip measured for 0.5 hrs by LC-MS/MS analysis. The following applies: read-out: Ct. It is filed as ADME, organism-based.
Data set [25] in a line: Toxicity in chronic unpredictable mild stress C57BL/6 mouse model assessed as abnormality in organs at 20 mg/kg, ip qd for 21 days by H and E staining based analysis. The class given is organism-based. The settings on record: in vivo, 504 h, time 21 day.
Data set [26] in a line: MRT (0 to infinity) in C57BL/6 mouse at 20 mg/kg, iv by LC-MS/MS analysis. The class given is ADME, organism-based. The following applies: in vivo.
The nature of data set [27]: AUC (0 to infinity) in C57BL/6 mouse at 20 mg/kg, ip by LC-MS/MS analysis. It is filed as ADME, organism-based. The settings on record: in vivo.
Data set [28] deals with T1, Protein deacetylase HDAC6 (Mus musculus) (UniProt Q9Z2V5).
T1 sequence (whole entry): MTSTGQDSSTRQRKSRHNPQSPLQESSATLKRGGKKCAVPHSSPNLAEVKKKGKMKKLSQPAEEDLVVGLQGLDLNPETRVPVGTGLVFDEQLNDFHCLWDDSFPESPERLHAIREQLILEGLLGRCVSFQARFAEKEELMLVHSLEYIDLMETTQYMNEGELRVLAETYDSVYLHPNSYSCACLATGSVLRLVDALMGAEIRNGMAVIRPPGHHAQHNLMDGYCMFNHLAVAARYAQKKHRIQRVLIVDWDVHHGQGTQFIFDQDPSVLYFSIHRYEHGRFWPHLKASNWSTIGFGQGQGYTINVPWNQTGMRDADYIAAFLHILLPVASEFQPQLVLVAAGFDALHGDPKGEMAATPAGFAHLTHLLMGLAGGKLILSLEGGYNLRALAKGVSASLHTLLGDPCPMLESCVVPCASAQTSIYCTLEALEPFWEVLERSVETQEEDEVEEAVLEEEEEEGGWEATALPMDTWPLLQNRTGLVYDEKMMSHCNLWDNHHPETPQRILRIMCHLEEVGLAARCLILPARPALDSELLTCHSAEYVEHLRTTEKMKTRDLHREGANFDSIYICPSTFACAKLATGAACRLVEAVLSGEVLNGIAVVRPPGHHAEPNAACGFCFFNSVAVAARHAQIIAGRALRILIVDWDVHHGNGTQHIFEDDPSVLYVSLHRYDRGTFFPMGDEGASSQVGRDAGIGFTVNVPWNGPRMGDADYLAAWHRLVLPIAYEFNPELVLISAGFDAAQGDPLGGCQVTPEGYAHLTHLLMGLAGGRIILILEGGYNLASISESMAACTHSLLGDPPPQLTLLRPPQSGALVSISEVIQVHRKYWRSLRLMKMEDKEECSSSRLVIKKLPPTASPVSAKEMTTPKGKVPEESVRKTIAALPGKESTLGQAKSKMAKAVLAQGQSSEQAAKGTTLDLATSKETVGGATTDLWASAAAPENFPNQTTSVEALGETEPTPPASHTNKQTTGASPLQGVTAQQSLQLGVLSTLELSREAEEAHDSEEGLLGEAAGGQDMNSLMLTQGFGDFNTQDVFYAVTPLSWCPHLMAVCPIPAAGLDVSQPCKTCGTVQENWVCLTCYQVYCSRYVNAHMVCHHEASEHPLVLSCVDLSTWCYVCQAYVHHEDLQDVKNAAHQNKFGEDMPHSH
Description: In vivo inhibition of HDAC6 in brain of chronic unpredictable mild stress C57BL/6 mouse model by IHC analysis. The class given is functional, organism-based.

Data set [29] deals with Mus musculus. Description: Antidepressant activity in chronic unpredictable mild stress C57BL/6 mouse model assessed as longer duration spent in central area of open field at 20 mg/kg, ip qd for 21 days by open field test. The following applies: time 21.0 day. It is filed as functional, organism-based.
Data set [30] can be described thus: Drug concentration in brain of C57BL/6 mouse at 1 mg/kg, ip measured for 1 hr by LC-MS/MS analysis. The settings on record: read-out: Ct. It is filed as ADME, organism-based.
The nature of data set [31]: MRT (0 to infinity) in C57BL/6 mouse at 20 mg/kg, ip by LC-MS/MS analysis. It is filed as ADME, organism-based. The settings on record: in vivo.
Data set [32] in a line: Drug concentration in plasma of C57BL/6 mouse at 1 mg/kg, ip measured for 4 hrs by LC-MS/MS analysis. It is filed as ADME, organism-based.
Data set [33] can be described thus: Toxicity in chronic unpredictable mild stress C57BL/6 mouse model assessed as animal death at 20 mg/kg, ip qd for 21 days. The class given is organism-based. The following applies: in vivo, 504 h, time 21 day.
Data set [34] can be described thus: Half life in C57BL/6 mouse at 20 mg/kg, iv by LC-MS/MS analysis. The class given is ADME, organism-based. The settings on record: in vivo.
A short description of data set [35]: Drug concentration in brain of C57BL/6 mouse at 1 mg/kg, ip measured for 4 hrs by LC-MS/MS analysis. It is filed as ADME, organism-based. The settings on record: read-out: Ct.
A short description of data set [36]: Half life in C57BL/6 mouse at 20 mg/kg, ip by LC-MS/MS analysis. The class given is ADME, organism-based. The settings on record: in vivo.
Data set [37] can be described thus: Ratio of drug concentration in brain to plasma of C57BL/6 mouse at 1 mg/kg, ip measured for 4 hrs by LC-MS/MS analysis. It is filed as ADME, organism-based. The following applies: read-out: BPR.

Molecules are shown by their SMILES. The source made the active and inactive calls. No cut-off for these calls is given here.

`CN(Cc1ccc(C(=O)NO)cc1[18F])CC12CC3CC(CC(C3)C1)C2`: the Drug uptake result in data set [1], in data set [2], in [3], in data set [4], in data set [5] and in [6] was “Active” in each case. Further, the Drug uptake entry in [7] and in data set [8] was “Active” each time.

Take `Cc1ccc2c(n1)N(Cc1ccc(C(=O)NO)cc1F)CCC2`: the Kp at 1 h in data set [9] stood at 3.9. Also, the concentration at 0.5 h in data set [10] was determined as 3.3 ng/mL; in [24], 26.5 ng/mL. Moreover, the Cmax in data set [11] was determined as 3600 ng/mL; in data set [21], 1510 ng/mL. Further, in data set [12], the Kp at 0.5 h amounted to 7.9. The Activity entry in data set [13], in data set [18], in [25] and in data set [33] was “Non-toxic” throughout. In addition, the result in the data set on Mus musculus [14], in the data set with Mus musculus [19], in the data set listed under Mus musculus [20], in the data set on Mus musculus [22] and in the data set with Mus musculus [29] was Active. Moreover, the bioavailability in data set [15] was found to be 47.7%. Also, the figures for the concentration at 1 h in data set [16] and in data set [30] were 2.6 ng/mL and 10.3 ng/mL, respectively. Moreover, the AUC(0-inf) stood at 1090 ng·h/mL in data set [17] and 522 ng·h/mL in [27]. The Tmax in data set [23] was 4.98 min. For the same compound, the MRT inf was 17.4 min in data set [26] and 24 min in [31]. Besides, the inhibition result in data set [28] is “Active”. The concentration at 4 h in data set [32] came out at 0.21 ng/mL; in [35], 0.42 ng/mL. The results for the half-life in [34] and in data set [36] were 33 min and 54.6 min, respectively. In addition, the Kp at 4 h in data set [37] worked out at 2.1.
